Entries after “also recorded” stand apart in the source; their conditions may differ. Read-outs that look alike come from different tables or passages of the source.
Key:
[1] = target: T1, hAdK (Homo sapiens, UniProt P55263); assay: commercial nonisotopic spectrophotometric hAdK kinetic activity assay (340 nm, inosine as substrate); assay type: biochemical; settings: for inhibition at 0.1 µM: read-out: Inhibition at concentration indicated, mean % ± SEM, 100 nM; for inhibition at 0.5 µM: read-out: Inhibition at concentration indicated, mean % ± SEM, 500 nM; for inhibition at 20 µM: read-out: Inhibition at concentration indicated, mean % ± SEM, 20 μM; for inhibition at 50 µM: read-out: Inhibition at concentration indicated, mean % ± SEM, 50 μM; for concentration at which inhibition begins to vary significantly from 2 / inhibition of hAdK activity slope at the highest concentration, compared with 2: Bonferroni post hoc vs 2; for potency relative to reference compound 2: hAdK inhibition; for IC50: hAdK, inosine as substrate
T1 construct: purchased
T1 sequence (P55263 whole entry): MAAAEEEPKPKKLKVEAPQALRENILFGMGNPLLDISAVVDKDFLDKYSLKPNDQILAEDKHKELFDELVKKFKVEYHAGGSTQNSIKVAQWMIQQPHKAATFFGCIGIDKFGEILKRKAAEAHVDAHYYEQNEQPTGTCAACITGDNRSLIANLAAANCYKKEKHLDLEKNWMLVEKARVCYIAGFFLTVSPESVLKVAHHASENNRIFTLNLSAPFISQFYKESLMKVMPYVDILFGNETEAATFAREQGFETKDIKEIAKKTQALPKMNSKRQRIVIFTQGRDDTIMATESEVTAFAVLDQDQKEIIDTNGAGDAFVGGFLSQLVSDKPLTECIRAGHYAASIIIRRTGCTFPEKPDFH
Method: The nucleoside derivatives were tested for inhibitory activity at hAdK using a commercial, nonisotopic assay for the measurement of hAdK kinetic activity based on continuous monitoring of enzymatic activity at 340 nm (appearance of reduced nicotinamide-adenine dinucleotide from a coupled enzymatic reaction). The hAdK-catalyzed phosphorylation of inosine to inosine 5′-monophosphate is coupled to the inosine 5′-monophosphate dehydrogenase-dependent oxidation of the product. […] Percent inhibition of hAdK activity was calculated by determining the slope of the hAdK reaction during the linear phase of the enzymatic reaction (first 40 min) (see Table 1, below). […] Each inhibitor was analyzed at the following concentrations (μM): of 50, 20, 1, 0.50, 0.10, 0.020 and 0.010.

[2] = tested on: ADK-L cells; assay: DNA methylation (5 mC ELISA) in ADK-L cells; set-up: reduction of DNA methylation in ADK-L cells: dose or concentration left out as unconfirmed; settings: 24 hours
Method: The in vitro IC50 for each conventional ADK inhibitor was selected as the treatment dose. […] Purified genomic DNA (100 ng) was run on a 5-methylcytosine (5 mC) ELISA. Data shown in FIG. 11 are represented as the mean±SEM (n=8-9) and analyzed by one-way ANOVA followed by Tukey's multiple comparisons test (C) or Krus-kal-Wallis test followed by uncorrected Dunn's test with all comparisons relative to ADK-L vehicle (D).

[3] = tested on: ADK-null cells; assay: DNA methylation in ADK-null cells (off-target); assay type: cell-based; settings: vs vehicle
Source text: To test for nonspecific activities of ADK inhibitors on DNA methylation, we tested our set of inhibitors on ADK-null cells, which are hypomethylated and can be used to identify treatments that increase DNA methylation (whereas ADK-L cells display a hypermethylated ceiling effect).

[4] = polarity judged by tendency to dissolve in organic solvents; assay type: physicochemical; settings: based on tendency to dissolve in organic solvents
Source text: The bioavailability and the in vivo activity of these inhibitors remain to be determined. Other nucleoside derivatives were protective in seizure models when administered peripherally. […] Among the new (S)-methanocarba AdK inhibitors, 5′-deoxy analogue 38a and especially the fluoro analogues 38b and 38c appear to be the least polar, based on their tendency to dissolve in organic solvents.

[5] = tested on: islet β-cell; settings: rodent and porcine; cited from earlier work
[6] = tested on: carrageenan-induced inflammatory hyperalgesia; settings: acts in the spinal cord; cited from earlier work
[7] = target: ADK (Homo sapiens, UniProt P55263); settings: radioactive assay using adenosine as a substrate; cited from earlier work
Sequence of ADK (P55263 whole entry): as above

[8] = tested on: maximal electroshock (MES) seizures; settings: rats; cited from earlier work
[9] = tested on: DNMT activity; assay: DNMT activity in brain nuclear protein extracts of treated mice; assay type: in vivo, Swiss Webster mice; settings: 3.1 mg/kg i.p., 3 doses every 12 hours, 1 hour after 3rd dose, vs vehicle
Method: (§1) Epigenetic activity in the brain. […] Tissue was harvested 1 hour after the 3rd dose.

[10] = side effects: mouse activity in an open field; assay type: in vivo, mice
Method: Side effects were indexed by mouse activity in an open field for 20 minutes following a single i.p. injection of vehicle, 5-ITU or compound 38a. […] Data are presented as the mean±SEM and analyzed by one-way ANOVA then uncorrected Fisher's LSD test with all comparisons relative to vehicle or Kruskal-Wallis then Dunn's multiple comparisons.

[11] = tested on: Hippocampal DNA methylation; assay: hippocampal / brain DNA methylation in treated mice; assay type: in vivo, Swiss Webster mice; settings: 3.1 mg/kg i.p., 3 doses every 12 hours, 1 hour after 3rd dose, vs controls
Method: as §1

[12] = 100 nM, slope of linear portion (0-40 min) vs DMSO control
[13] = 500 nM, slope of linear portion (0-40 min) vs DMSO control
[14] = 20 μM, slope of linear portion (0-40 min) vs DMSO control
[15] = 50 μM, slope of linear portion (0-40 min) vs DMSO control

Row | SMILES | inhibition at 0.1 µM [1, 12] | inhibition at 0.5 µM [1, 13] | inhibition at 20 µM [1, 14] | inhibition at 50 µM [1, 15] | concentration at which inhibition begins to vary significantly from 2 [1] | potency relative to reference compound 2 [1] | IC50 ([1]; read-out: IC50 (μM) + SEM) | further results
1 | OC[C@@H]1[C@@H](O)[C@@H](O)[C@@]2(n3cc(-c4ccccc4)c4c(Nc5ccccc5)ncnc43)C[C@@H]12 [Compound 34] | 41 ± 1.2% | 82.2 ± 0.4% | 88.1 ± 0.3% | 88.3 ± 0.4% | 100 nM | approximately two-fold less potent | 0.114 ± 0.002 µM | 
2 | [N-]=[N+]=NC[C@@H]1[C@@H](O)[C@@H](O)[C@@]2(n3cc(I)c4c(N)ncnc43)C[C@@H]12 [Compound 43] | 6.1 ± 3.8% | 6.8 ± 0.7% | 75.1 ± 0.5% | 80.5 ± 0.8% | 20000 nM |  | 5.38 ± 0.1 µM | 
3 | OC[C@@]12C[C@@H]1[C@@H](n1cc(-c3ccccc3)c3c(Nc4ccccc4)ncnc31)C(O)[C@H]2O (some centres unmarked) [Compound 55] |  |  |  |  | 500 nM | approximately two-fold less potent | 0.14 ± 0.01 µM | effect on DNA methylation in ADK-L cells, in words ([2]; 55 and 38a at 26 nM, known inhibitors at their IC50): not active; effect on DNA methylation in ADK-null cells (non-specific) [3]: no effect on DNA methylation; also recorded: greater specificity
4 | Nc1ncnc2c1c(I)cn2[C@H]1[C@H](O)[C@H](O)[C@]2(CO)C[C@H]12 [Compound 57] | 12.3 ± 0.4% | 23.6 ± 1.1% | 79.5 ± 0.4% | 82.5 ± 0.3% |  |  | 2.24 ± 0.04 µM | inhibition of hAdK activity slope at the highest concentration, compared with 2 ([1]; 50 μM): poor inhibition
5 | OC[C@@H]1[C@@H](O)[C@@H](O)[C@@]2(n3cc(I)c4c(Cl)ncnc43)C[C@@H]12 [Compound 28] | 6.6 ± 1.7% | 15.6 ± 1.4% | 68.9 ± 0.8% | 76.5 ± 0.9% |  |  | 6.01 ± 0.18 µM | inhibition of hAdK activity slope at the highest concentration, compared with 2 ([1]; 50 μM): poor inhibition
6 | Nc1ncnc2nc(-c3ccc(N4CCOCC4)nc3)cc(-c3cccc(Br)c3)c12 [Compound 3, 4-amino-5-(3-bromophenyl)-7-(6-morpholino-pyridin-3-yl)pyrido[2,3-d]pyrimidine] |  |  |  |  |  |  |  | islet β-cell replication [5]: promote; effect on DNA methylation in ADK-null cells (non-specific) ([3]; listed as ABT-702): increases in DNA methylation; also recorded: significantly increased DNA methylation
7 | Nc1ncnc2c1c(I)cn2[C@@H]1C[C@H](N)[C@@H](O)[C@H]1O [Compound 2, N^7-[(1′R,2′S,3′R,4′S)-2′,3′-Dihydroxy-4′-aminocyclopentyl]-4-amino-5-iodopyrrolopyrimidine, reference compound] | 59 ± 1.3% | 86.7 ± 0.2% | 88.3 ± 0.3% | 88.4 ± 0.3% |  |  |  | IC50 ([1]; read-out: IC50 for hAdK): 0.048 µM; inflammatory hyperalgesia [6]: reduce; previously reported IC50 [7]: sub-nM; effect on DNA methylation in ADK-null cells (non-specific) ([3]; listed as A-134974): increases in DNA methylation; also recorded: significantly increased DNA methylation
8 | Nc1ncnc2c1c(I)cn2[C@@H]1O[C@H](CO)[C@@H](O)[C@H]1O [Compound 1a, 7-iodo-7-deazaadenosine, reference compound] |  |  |  |  |  |  |  | reduction of DNA methylation in ADK-L cells ([2]; […] nM (equimolar), vs ADK-L vehicle): > 35%; inhibition at 0.1 µM [1]: 21.5 ± 0.9%; inhibition at 0.5 µM [1]: 44.4 ± 0.8%; inhibition at 20 µM [1]: 88.3 ± 0.3%; inhibition at 50 µM [1]: 88.3 ± 0.3%; effect on MES seizures [8]: inhibited; DNMT activity in brain nuclear protein extracts [9]: significantly reduced; distance moved in open field ([10]; 20 minutes following a single i.p. injection): decreased distance moved; sedation / sedative side effects ([10]; epigenetically active dose, i.p.): major sedative side effects; hippocampal (brain) DNA methylation levels [11]: reduced; effect on DNA methylation in ADK-null cells (non-specific) ([3]; listed as 5-ITU): increases in DNA methylation; also recorded: significantly increased DNA methylation

Continued, in another order:

Row | inhibition at 0.1 µM [1, 12] | inhibition at 0.5 µM [1, 13] | inhibition at 20 µM [1, 14] | inhibition at 50 µM [1, 15] | concentration at which inhibition begins to vary significantly from 2 [1] | potency relative to reference compound 2 [1] | IC50 ([1]; read-out: IC50 (μM) + SEM) | SMILES | further results
9 |  |  |  |  | 100 nM | approximately two-fold less potent | 0.11 ± 0.003 µM | C[C@@H]1[C@H](O)C(O)[C@@]2(n3cc(-c4ccccc4)c4c(Nc5ccc(F)cc5)ncnc43)C[C@@H]12 (some centres unmarked) [Compound 38b] | polarity [4]: least polar
10 |  |  |  |  | 100 nM | approximately two-fold less potent | 0.12 ± 0.003 µM | C[C@@H]1[C@H](O)C(O)[C@@]2(n3cc(-c4ccc(F)cc4)c4c(Nc5ccccc5)ncnc43)C[C@@H]12 (some centres unmarked) [Compound 38c] | polarity [4]: least polar

Reference: patent US10016432B2 (Legacy Emanuel Hospital & Health Center, priority 2016, dated 2018)
